Data set [1] can be described thus: Antitumor activity against human HCT116 cells xenografted in SCID mouse assessed as decrease in […] positive cells at 25 mg/kg, sc after 24 hrs infusion schedule. To be noted: HCT-116, sc.
A short description of data set [2]: Plasma concentration in human HCT116 cells xenografted in SCID mouse at 50 mg/kg/day, sc infusion after 8 hrs.
Data set [3] is described as follows: in vivo. To be noted: mouse, po.
Description: Oral bioavailability in mouse
A short description of data set [4]: in vitro. To be noted: mouse, liver microsomes.
Description: Metabolic stability mouse liver microsomes assessed as stability at 5 uM by LC/MS-MS analysis
Data set [5] can be described thus: Antitumor activity against human HCT116 cells xenografted in SCID mouse assessed as decrease in […] positive cells at 50 mg/kg, sc after 24 hrs infusion schedule. To be noted: HCT-116, sc.
A short description of data set [6]: Antitumor activity against human HCT116 cells xenografted in SCID mouse assessed as decrease in […] positive cells at 25 mg/kg/day, sc after 48 hrs infusion schedule. The conditions noted are these: HCT-116, sc.
Data set [7] in a line: in vitro. The conditions noted are these: human, liver microsomes.
Description: Metabolic stability human liver microsomes assessed as stability at 5 uM by LC/MS-MS analysis
Data set [8] is described as follows: in vivo. To be noted: mouse.
Description: Volume of distribution in mouse
Another data set concerns PBMC. The data set can be described thus: cells. The conditions noted are these: Homo sapiens, 96 h.
Data set [9] can be described thus: in vivo. The conditions noted are these: mouse. This is another data set of the same source.
Data set [10] is described as follows: in vitro. The conditions noted are these: human, Caco-2.
Description: Permeability across human Caco2 cells
The nature of data set [11]: Antitumor activity against human HCT116 cells xenografted in SCID mouse assessed as tumor growth at 25 mg/kg/day, sc after 48 hrs infusion schedule. To be noted: route subcutaneous.
For a further data set, the target named is Aurora kinase B (Homo sapiens, UniProt Q96GD4).
Chain of Aurora kinase B (Q96GD4 whole entry): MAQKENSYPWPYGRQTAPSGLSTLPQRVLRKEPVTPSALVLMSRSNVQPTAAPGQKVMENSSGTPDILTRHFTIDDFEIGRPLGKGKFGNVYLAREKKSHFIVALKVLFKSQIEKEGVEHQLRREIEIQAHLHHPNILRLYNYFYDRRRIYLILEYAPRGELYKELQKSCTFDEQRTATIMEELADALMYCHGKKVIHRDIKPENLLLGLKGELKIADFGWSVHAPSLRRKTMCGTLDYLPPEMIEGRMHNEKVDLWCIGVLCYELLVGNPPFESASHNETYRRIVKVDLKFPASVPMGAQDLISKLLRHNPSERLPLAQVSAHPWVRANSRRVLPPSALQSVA
Data set [12] has as its target T1, Cytochrome P450 3A4 (Homo sapiens, UniProt P08684).
Description: Inhibition of human recombinant CYP3A4 in liver microsomes by mechanism based inhibition assay
Data set [13] relates to HeLa. The data set is described as follows: cells. To be noted: Homo sapiens.
Description: (§1) Antiproliferative activity against human HeLa cells assessed as 14C-thymidine incorporation by Micro-Beta radioactivity counting analysis
Data set [14] in a line: Antitumor activity against human HCT116 cells xenografted in SCID mouse assessed as tumor growth at 25 mg/kg, sc after 24 hrs infusion schedule. To be noted: route subcutaneous.
A further data set deals with T2, Aurora kinase C (Homo sapiens, UniProt Q9UQB9).
T2 sequence (Q9UQB9 whole entry): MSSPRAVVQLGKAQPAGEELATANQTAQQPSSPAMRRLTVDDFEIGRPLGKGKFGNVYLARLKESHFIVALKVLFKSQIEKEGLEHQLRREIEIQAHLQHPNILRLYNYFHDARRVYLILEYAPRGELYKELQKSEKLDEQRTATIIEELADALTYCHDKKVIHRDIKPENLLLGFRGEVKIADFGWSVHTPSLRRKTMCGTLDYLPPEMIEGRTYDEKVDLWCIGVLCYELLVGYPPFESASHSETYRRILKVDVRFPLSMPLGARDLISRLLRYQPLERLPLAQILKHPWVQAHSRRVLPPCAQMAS

The target of the next data set is Angiopoietin-1 receptor (Homo sapiens, UniProt Q02763).
Chain of Angiopoietin-1 receptor (Q02763 whole entry): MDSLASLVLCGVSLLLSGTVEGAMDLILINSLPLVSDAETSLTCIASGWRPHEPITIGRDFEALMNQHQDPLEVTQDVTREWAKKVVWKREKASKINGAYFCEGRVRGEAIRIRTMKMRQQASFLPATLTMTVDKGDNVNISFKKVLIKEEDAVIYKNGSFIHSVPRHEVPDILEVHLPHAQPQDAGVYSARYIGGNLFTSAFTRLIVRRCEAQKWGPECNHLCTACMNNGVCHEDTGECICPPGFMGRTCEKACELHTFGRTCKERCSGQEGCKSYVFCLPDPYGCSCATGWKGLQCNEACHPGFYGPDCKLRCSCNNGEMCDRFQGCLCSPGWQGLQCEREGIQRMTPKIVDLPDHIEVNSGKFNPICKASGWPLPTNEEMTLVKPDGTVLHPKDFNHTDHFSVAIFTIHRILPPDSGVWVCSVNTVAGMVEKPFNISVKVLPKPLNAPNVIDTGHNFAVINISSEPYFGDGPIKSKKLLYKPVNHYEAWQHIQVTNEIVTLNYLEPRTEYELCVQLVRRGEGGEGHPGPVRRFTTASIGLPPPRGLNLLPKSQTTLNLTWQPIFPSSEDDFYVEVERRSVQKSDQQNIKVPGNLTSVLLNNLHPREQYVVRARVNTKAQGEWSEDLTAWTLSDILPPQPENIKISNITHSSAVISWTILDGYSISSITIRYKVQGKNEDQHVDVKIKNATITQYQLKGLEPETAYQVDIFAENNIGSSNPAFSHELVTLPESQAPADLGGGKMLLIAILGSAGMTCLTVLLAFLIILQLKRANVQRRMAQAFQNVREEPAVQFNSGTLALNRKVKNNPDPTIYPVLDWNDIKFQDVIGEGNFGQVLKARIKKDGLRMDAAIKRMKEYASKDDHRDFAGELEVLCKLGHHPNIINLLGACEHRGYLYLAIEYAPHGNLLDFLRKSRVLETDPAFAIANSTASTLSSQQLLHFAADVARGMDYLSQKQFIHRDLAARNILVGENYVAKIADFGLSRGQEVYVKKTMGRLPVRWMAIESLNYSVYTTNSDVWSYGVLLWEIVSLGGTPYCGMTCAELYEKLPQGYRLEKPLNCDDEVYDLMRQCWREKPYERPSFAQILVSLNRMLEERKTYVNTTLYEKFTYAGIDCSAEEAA
The target in another data set is Focal adhesion kinase 1 (Homo sapiens, UniProt Q05397).
Chain of Focal adhesion kinase 1 (Q05397 whole entry): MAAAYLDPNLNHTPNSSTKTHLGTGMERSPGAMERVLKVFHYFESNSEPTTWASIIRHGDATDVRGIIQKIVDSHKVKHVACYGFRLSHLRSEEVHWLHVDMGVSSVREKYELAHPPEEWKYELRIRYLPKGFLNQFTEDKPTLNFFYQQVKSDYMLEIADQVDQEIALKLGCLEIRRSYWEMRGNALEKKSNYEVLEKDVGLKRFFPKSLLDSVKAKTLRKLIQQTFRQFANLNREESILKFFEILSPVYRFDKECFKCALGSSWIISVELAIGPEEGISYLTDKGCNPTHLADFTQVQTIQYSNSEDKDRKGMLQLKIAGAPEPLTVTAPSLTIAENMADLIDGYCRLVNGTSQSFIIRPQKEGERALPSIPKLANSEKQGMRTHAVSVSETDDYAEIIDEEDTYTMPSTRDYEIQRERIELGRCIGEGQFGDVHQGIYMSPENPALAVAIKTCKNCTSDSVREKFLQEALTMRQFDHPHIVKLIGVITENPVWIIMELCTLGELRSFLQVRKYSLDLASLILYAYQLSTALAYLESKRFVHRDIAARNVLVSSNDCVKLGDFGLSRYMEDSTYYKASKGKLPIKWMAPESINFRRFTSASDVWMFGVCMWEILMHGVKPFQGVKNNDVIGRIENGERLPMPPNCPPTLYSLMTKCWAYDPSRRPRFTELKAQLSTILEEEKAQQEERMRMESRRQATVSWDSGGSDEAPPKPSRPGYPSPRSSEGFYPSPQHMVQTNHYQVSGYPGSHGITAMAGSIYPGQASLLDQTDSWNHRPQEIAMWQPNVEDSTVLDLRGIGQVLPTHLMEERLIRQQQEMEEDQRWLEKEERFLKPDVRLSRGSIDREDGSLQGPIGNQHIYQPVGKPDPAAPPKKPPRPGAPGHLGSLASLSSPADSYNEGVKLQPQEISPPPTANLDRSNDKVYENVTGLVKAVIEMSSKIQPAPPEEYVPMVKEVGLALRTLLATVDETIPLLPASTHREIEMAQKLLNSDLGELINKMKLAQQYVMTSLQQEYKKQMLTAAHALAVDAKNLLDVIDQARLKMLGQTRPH
In another data set the target is MAP kinase p38 (Homo sapiens, UniProt O15264+Q15759+Q16539+P53778).
Data set [15] concerns the target Insulin-like growth factor 1 receptor (Homo sapiens, UniProt P08069).
Description: Inhibition of IGF1R (unknown origin)
The subject of data set [16] is HeLa.
Description: as §1
The target in data set [17] is T1, Cytochrome P450 3A4. This is another data set of the same source.
Description: Inhibition of human recombinant CYP3A4 co-expressed with human P450 reductase/human b5 reductase using 7-benzyloxyquinoline substrate

A value given as a limit tells only on which side of the number the result lay.

T1 sequence (P08684 whole entry): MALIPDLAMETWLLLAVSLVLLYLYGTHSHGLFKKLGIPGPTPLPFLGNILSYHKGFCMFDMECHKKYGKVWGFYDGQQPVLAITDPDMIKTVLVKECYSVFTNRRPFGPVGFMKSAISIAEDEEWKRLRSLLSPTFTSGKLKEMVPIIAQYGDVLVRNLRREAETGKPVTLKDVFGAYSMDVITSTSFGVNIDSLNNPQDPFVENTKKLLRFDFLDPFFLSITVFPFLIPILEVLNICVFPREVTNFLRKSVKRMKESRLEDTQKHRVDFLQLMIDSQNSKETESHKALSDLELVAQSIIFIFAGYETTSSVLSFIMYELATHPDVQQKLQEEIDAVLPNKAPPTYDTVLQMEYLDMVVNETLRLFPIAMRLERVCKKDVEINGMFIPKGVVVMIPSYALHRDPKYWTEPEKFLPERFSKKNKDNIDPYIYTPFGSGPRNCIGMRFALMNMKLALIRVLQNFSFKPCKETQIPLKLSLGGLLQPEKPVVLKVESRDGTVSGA
Chain of Insulin-like growth factor 1 receptor (P08069 31-736 limits assumed): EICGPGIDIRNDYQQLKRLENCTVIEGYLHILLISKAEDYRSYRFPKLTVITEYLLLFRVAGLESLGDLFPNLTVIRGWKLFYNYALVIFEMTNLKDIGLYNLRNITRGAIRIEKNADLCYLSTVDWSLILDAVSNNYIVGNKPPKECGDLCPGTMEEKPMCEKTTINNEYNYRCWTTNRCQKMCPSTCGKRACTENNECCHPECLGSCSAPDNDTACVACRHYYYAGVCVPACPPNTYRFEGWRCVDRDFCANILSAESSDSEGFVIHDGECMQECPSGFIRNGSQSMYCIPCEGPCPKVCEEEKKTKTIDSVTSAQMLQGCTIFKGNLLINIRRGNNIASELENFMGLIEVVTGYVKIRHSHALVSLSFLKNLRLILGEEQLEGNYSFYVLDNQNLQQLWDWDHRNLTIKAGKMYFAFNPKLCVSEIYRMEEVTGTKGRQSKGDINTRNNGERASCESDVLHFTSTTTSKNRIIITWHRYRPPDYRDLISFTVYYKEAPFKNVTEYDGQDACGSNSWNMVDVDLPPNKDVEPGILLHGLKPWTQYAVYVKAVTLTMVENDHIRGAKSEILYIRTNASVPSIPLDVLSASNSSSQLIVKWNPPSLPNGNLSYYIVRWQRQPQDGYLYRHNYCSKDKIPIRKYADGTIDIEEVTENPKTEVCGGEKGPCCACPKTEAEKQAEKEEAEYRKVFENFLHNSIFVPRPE
Chain of Insulin-like growth factor 1 receptor (P08069 741-1367 limits assumed): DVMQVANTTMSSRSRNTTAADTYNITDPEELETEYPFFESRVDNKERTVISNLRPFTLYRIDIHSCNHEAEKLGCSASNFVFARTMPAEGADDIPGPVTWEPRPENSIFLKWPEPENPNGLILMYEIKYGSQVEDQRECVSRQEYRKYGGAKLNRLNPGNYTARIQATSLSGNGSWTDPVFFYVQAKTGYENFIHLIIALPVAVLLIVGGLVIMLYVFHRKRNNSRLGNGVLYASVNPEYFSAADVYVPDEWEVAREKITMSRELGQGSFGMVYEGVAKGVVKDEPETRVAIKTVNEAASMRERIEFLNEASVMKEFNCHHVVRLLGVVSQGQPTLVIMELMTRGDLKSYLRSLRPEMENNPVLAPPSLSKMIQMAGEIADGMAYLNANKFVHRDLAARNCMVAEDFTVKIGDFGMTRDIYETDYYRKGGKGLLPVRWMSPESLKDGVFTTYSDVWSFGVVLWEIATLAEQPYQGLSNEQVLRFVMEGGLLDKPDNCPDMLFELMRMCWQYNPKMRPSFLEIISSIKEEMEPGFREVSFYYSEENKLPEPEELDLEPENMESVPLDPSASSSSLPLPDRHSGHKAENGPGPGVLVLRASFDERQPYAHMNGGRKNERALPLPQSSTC
Description for Angiopoietin-1 receptor: Inhibition of TIE-2 (unknown origin)
Description for Aurora kinase B: Inhibition of poly-histidine tagged full length recombinant aurora B (unknown origin) assessed as phosphorylation of NuMA-histidine substrate by scintillation counting analysis
Description for Aurora kinase C: Inhibition of poly-histidine tagged full length recombinant aurora C (unknown origin) assessed as phosphorylation of NuMA-histidine substrate by scintillation counting analysis
Description for Focal adhesion kinase 1: Inhibition of FAK (unknown origin)
Description for MAP kinase p38: Inhibition of p-38 kinase (unknown origin)
Description for PBMC: Cytotoxicity against human hematological tumor PBMC assessed as viability after 96 hrs by MTS assay

Consider `CCOC(=O)c1[nH]cc2c1NC1=C(C(=O)CCC1)[C@H]2c1cccc(Oc2nc3ccccc3[nH]2)c1`, for which, in data set [1], the inhibition in vivo at 25 mg/kg came to 19%. Moreover, the concentration at 8 h in data set [2] was determined as 63 µM. For the same compound, the bioavailability in “in vivo [3]” amounted to 64%. Moreover, the share remaining at 5 µM in “in vitro [4]” amounted to 32%; in “in vitro [7]” it was 53%. Moreover, the inhibition in vivo at 50 mg/kg in data set [5] stood at 47%. In addition, in [6], the inhibition in vivo at 25 mg/kg/day was 16%. Moreover, in “in vivo [8]”, the volume of distribution (Vd) worked out at 0.14 L/kg. For the same compound, the IC50 with PBMC is greater than 10000 nM; on Aurora kinase B, 1 nM; with HeLa [13] it was 67 nM; against Aurora kinase C it was 3 nM. In “in vivo [9]”, the half-life was 2.4 h. The same compound came in with a Papp in the data set “in vitro [10]” of 6 ×10⁻⁶ cm/s. Besides, the Activity is listed as 19% in data set [11] and 59% in data set [14]. The Ki at Cytochrome P450 3A4 [12] was 990 nM.

For `O=C1CNCC2=C1C(c1ccccc1F)c1c[nH]nc1N2` (racemic), the IC50 is greater than 20000 nM on Angiopoietin-1 receptor; greater than 20000 nM against Focal adhesion kinase 1; greater than 20000 nM against MAP kinase p38; greater than 20000 nM in [15]; greater than 10000 nM in the data set on HeLa [13].

Take `CCOC(=O)c1[nH]cc2c1NC1=C(C(=O)CCC1)C2c1ccc(Sc2nc3ccccc3[nH]2)o1` (racemic): the IC50 with HeLa [16] was 15 nM.

On to `CCOC(=O)c1[nH]cc2c1NC1=C(C(=O)CNC1)C2c1ccc(Sc2nc3ccccc3[nH]2)o1` (racemic), for which the fraction remaining at 5 µM in “in vitro [4]” was determined as 60%; in “in vitro [7]”, 66%. Besides, the IC50 at Aurora kinase B was 2 nM; at Cytochrome P450 3A4 [17] it was 170 nM.

For the compound `CCOC(=O)c1[nH]cc2c1NC1=C(C(=O)CCC1)C2c1ccc(Sc2nc3cccc(F)c3[nH]2)o1` (racemic), the figures for the amount remaining at 5 µM in the data set “in vitro [4]” and in “in vitro [7]” were 58% and 47%, respectively. In addition, the half-maximal inhibitory concentration (IC50) was 6 nM on Aurora kinase B and 4500 nM on Cytochrome P450 3A4 [17].

As to `CCOC(=O)c1[nH]cc2c1NC1=C(C(=O)CCC1)C2c1ccc(Sc2nc3cccc(Cl)c3[nH]2)o1` (racemic), the figures for the share remaining at 5 µM in the data set “in vitro [4]” and in the data set “in vitro [7]” were 85% and 68%, respectively. The values for the IC50 against Aurora kinase B and against Cytochrome P450 3A4 [17] were 7 nM and 50 nM, respectively.

Consider `CCOC(=O)c1[nH]cc2c1NC1=C(C(=O)CCC1)C2c1ccc(Sc2nc3ccccc3[nH]2)o1` (single isomer, unassigned; (+)), for which the fraction remaining at 5 µM was 83% in the data set “in vitro [4]” and 69% in “in vitro [7]”. Besides, the IC50 on Cytochrome P450 3A4 [17] stood at 190 nM; with HeLa [16] it was 16 nM.

In turn, `CCOC(=O)c1[nH]cc2c1NC1=C(C(=O)CCC1)C2c1ccc(Sc2nc3ccccc3[nH]2)o1` (single isomer, unassigned; (-)) yielded an IC50 with HeLa [16] of 7000 nM.

The record behind these values is ChEMBL document CHEMBL3392969, “SAR156497, an exquisitely selective inhibitor of aurora kinases” (J Med Chem, 2015).
